Tests used:
Assay in all cases: Endpoint RT-PCR analysis of alternatively spliced mRNAs in cultured cells
Assay type in all cases: cell-based, human
[1] = system: APLP2 exon 7; conditions: APLP2 exon 7, sequence ATGAgtaagt; GM03813 cells, 24 hours; without compound 10
Method: (§1) Endpoint RT-PCR Analysis of Alternatively Spliced mRNAs in Cultured Cells GM03813 cells derived from a patient with SMA type I (Coriell Institute) were plated at 5,000 cells/well in 200 μl DMEM with 10% FBS in 96-well plates, and incubated for 6 hours in a cell culture incubator (37° C., 5% CO2, 100% relative humidity). Cells were then treated with Compound 702 at different concentrations (in 0.5% DMSO) in duplicate for 24 hours. After removal of the supernatant, cells were lysed in Cells-To-Ct lysis buffer (Life Technologies, Inc.). Reverse transcription was performed using 5 μl of cell lysate and the iScript RT enzyme kit (Bio-Rad Laboratories, Inc). PCR was performed using 5 μl of cDNA and Platinum Taq HiFi DNA Polymerase (Life Technologies, Inc.) under the following PCR conditions: Step 1: 94° C. (2 min), Step 2: 94° C. (30 sec), Step 3: 55° C. (30 sec), Step 4: 68° C. (1 min), then repeat Steps 2 to 4 for 33 cycles, then hold at 4° C. PCR products were separated on 2% agarose E-gels, stained with ethidium bromide and visualized using a gel imager (UVP). [table]

[2] = system: ARMCX6 exon 3; conditions: ARMCX6 exon 3, sequence TAGAgtatga; GM03813 cells, 24 hours; without compound 0
Method: as §1

[3] = system: COL1A1 exon 11; conditions: COL1A1 exon 11, sequence CAGAgtgagt; GM03813 cells, 24 hours; without compound 100
Method: as §1

[4] = system: COL1A1 exon 30; conditions: COL1A1 exon 30, sequence AAGAgtaagt; GM03813 cells, 24 hours; without compound 60
Method: as §1

[5] = system: COL1A1 exon 32; conditions: COL1A1 exon 32, sequence CAGAgtaagt; GM03813 cells, 24 hours; without compound 90
Method: as §1

[6] = system: COL1A1 exon 46; conditions: COL1A1 exon 46, sequence CCGAgtaagt; GM03813 cells, 24 hours; without compound 100
Method: as §1

[7] = system: COL1A1 exon 5; conditions: COL1A1 exon 5, sequence AGGAgtaagt; GM03813 cells, 24 hours; without compound 0
Method: as §1

[8] = system: COL1A2 exon 21; conditions: COL1A2 exon 21, sequence GAGAgtaggt; GM03813 cells, 24 hours; without compound 100
Method: as §1

[9] = system: COL1A2 exon 22; conditions: COL1A2 exon 22, sequence CAGAgtaagt; GM03813 cells, 24 hours; without compound 100
Method: as §1

[10] = system: COL1A2 exon 30; conditions: COL1A2 exon 30, sequence AAGAgtaagt; GM03813 cells, 24 hours; without compound 100
Method: as §1

[11] = system: COL3A1 exon 10; conditions: COL3A1 exon 10, sequence CAGAgtaagt; GM03813 cells, 24 hours; without compound 100
Method: as §1

[12] = system: COL3A1 exon 46; conditions: COL3A1 exon 46, sequence CAGAgtaagt; GM03813 cells, 24 hours; without compound 100
Method: as §1

[13] = system: COL5A2 exon 13; conditions: COL5A2 exon 13, sequence CCGAgtaagt; GM03813 cells, 24 hours; without compound 100
Method: as §1

[14] = system: COL5A2 exon 32; conditions: COL5A2 exon 32, sequence TAGAgtaagt; GM03813 cells, 24 hours; without compound 100
Method: as §1

[15] = system: COL5A2 exon 34; conditions: COL5A2 exon 34, sequence CAGAgtaagt; GM03813 cells, 24 hours; without compound 100
Method: as §1

[16] = system: COL5A2 exon 35; conditions: COL5A2 exon 35, sequence AAGAgtaagt; GM03813 cells, 24 hours; without compound 100
Method: as §1

[17] = system: COL5A2 exon 49; conditions: COL5A2 exon 49, sequence AAGAgtaagt; GM03813 cells, 24 hours; without compound 90
Method: as §1

[18] = system: DIAPH3 exon 11; conditions: DIAPH3 exon 11, sequence TTGAatatcc; GM03813 cells, 24 hours; without compound 100
Method: as §1

[19] = system: ERGIC3 exon 8; conditions: ERGIC3 exon 8, sequence GAGAgtaagt; GM03813 cells, 24 hours; without compound 0
Method: as §1

[20] = system: FADS2 exon 6; conditions: FADS2 exon 6, sequence CTGAgtaagt; GM03813 cells, 24 hours; without compound 100
Method: as §1

[21] = system: FN1 exon 35; conditions: FN1 exon 35, sequence GAGAgtaagt; GM03813 cells, 24 hours; without compound 100
Method: as §1

[22] = system: FOXM1 exon 7A (114 nucleotides); conditions: sequence ATCAgtaagt, GM03813 cells, 24 hours, without compound 0
Method: as §1

[23] = system: FOXM1 exon 7A […]C (34 nucleotides); conditions: sequence ATGAgtaagt, GM03813 cells, 24 hours, without compound 0
Method: as §1

[24] = system: GALC exon 5; conditions: GALC exon 5, sequence TGGAgttagt; GM03813 cells, 24 hours; without compound 90
Method: as §1

[25] = system: GGCT exon 2; conditions: GGCT exon 2, sequence ATGAgtaggt; GM03813 cells, 24 hours; without compound 40
Method: as §1

[26] = system: LAMA2 exon 5; conditions: LAMA2 exon 5, sequence AAGAgtaagt; GM03813 cells, 24 hours; without compound 100
Method: as §1

[27] = system: LARP7 exon 1; conditions: LARP7 exon 1, sequence CGGAgtaagt; GM03813 cells, 24 hours; without compound 0
Method: as §1

[28] = system: LARP7 exon 2; conditions: LARP7 exon 2, sequence AAGAgtaaga; GM03813 cells, 24 hours; without compound 10
Method: as §1

[29] = system: MADD exon 21; conditions: MADD exon 21, sequence CAGAgtaagg; GM03813 cells, 24 hours; without compound 0
Method: as §1

[30] = system: PARP1 exon 22; conditions: PARP1 exon 22, sequence ACGAgtatcc; GM03813 cells, 24 hours; without compound 100
Method: as §1

[31] = system: PRKDC exon 11; conditions: PRKDC exon 11, sequence AGGAgtatgt; GM03813 cells, 24 hours; without compound 100
Method: as §1

[32] = system: PRKDC exon 51; conditions: PRKDC exon 51, sequence GCGAgtacgt; GM03813 cells, 24 hours; without compound 100
Method: as §1

[33] = system: RCC 1 exon 4; conditions: RCC 1 exon 4, sequence AGAGgtaaga; GM03813 cells, 24 hours; without compound 90
Method: as §1

[34] = system: SMN2 exon 5; conditions: SMN2 exon 5, sequence ACCAgtaagt; GM03813 cells, 24 hours; without compound 50
Method: as §1

[35] = system: SMN2 exon 7; conditions: SMN2 exon 7, sequence AGGAgtaagt; GM03813 cells, 24 hours; % inclusion of exon without compound 40
Method: as §1

[36] = system: STRN3 exon 8; conditions: STRN3 exon 8, sequence AAGAgtaagt; GM03813 cells, 24 hours; without compound 10
Method: as §1

[37] = system: VPS29 exon 2; conditions: VPS29 exon 2, sequence CAGAgtaagt; GM03813 cells, 24 hours; without compound 40
Method: as §1

CCN1CCC(c2cc(C)c3nc(-c4cc5c(C)nc(C)cn5n4)cc(=O)n3c2)CC1 [Compound 702]
% Inclusion of Exon with Compound [1]: 30%
% Inclusion of Exon with Compound [2]: no change
% Inclusion of Exon with Compound [3]: no change
% Inclusion of Exon with Compound [4]: 90%
% Inclusion of Exon with Compound [5]: no change
% Inclusion of Exon with Compound [6]: no change
% Inclusion of Exon with Compound [7]: no change
% Inclusion of Exon with Compound [8]: no change
% Inclusion of Exon with Compound [9]: no change
% Inclusion of Exon with Compound [10]: no change
% Inclusion of Exon with Compound [11]: no change
% Inclusion of Exon with Compound [12]: no change
% Inclusion of Exon with Compound [13]: no change
% Inclusion of Exon with Compound [14]: no change
% Inclusion of Exon with Compound [15]: no change
% Inclusion of Exon with Compound [16]: no change
% Inclusion of Exon with Compound [17]: no change
% Inclusion of Exon with Compound [18]: no change
% Inclusion of Exon with Compound [19]: 10%
% Inclusion of Exon with Compound [20]: no change
% Inclusion of Exon with Compound [21]: no change
% Inclusion of Exon with Compound [22]: 10%
% Inclusion of Exon with Compound [23]: 90%
% Inclusion of Exon with Compound [24]: no change
% Inclusion of Exon with Compound [25]: 95%
% Inclusion of Exon with Compound [26]: no change
% Inclusion of Exon with Compound [27]: 10%
% Inclusion of Exon with Compound [28]: 40%
% Inclusion of Exon with Compound [29]: 5%
% Inclusion of Exon with Compound [30]: no change
% Inclusion of Exon with Compound [31]: no change
% Inclusion of Exon with Compound [32]: no change
% Inclusion of Exon with Compound [33]: no change
% Inclusion of Exon with Compound [34]: no change
% Inclusion of Exon with Compound [35]: 100%
% Inclusion of Exon with Compound [36]: 100%
% Inclusion of Exon with Compound [37]: 100%
